Data as given in US20150352108A1, “AMINO-PYRIMIDINE COMPOUNDS AS INHIBITORS OF TBK1 AND/OR IKK EPSILON” (Alzheimer's Institute of America, priority 2009, published 2015).
Read-outs that look alike come from different tables or passages of the source.

How the values were obtained:
[1] = molecular target: T1, TBK1 (Homo sapiens, UniProt Q9UHD2); test: In-vitro TBK1 kinase assay ([γ33]ATP filter-plate); assay type: biochemical
T1 construct: His-tag; made in house; host or cells: Sf9 insect cells
T1 sequence (Q9UHD2 1-729): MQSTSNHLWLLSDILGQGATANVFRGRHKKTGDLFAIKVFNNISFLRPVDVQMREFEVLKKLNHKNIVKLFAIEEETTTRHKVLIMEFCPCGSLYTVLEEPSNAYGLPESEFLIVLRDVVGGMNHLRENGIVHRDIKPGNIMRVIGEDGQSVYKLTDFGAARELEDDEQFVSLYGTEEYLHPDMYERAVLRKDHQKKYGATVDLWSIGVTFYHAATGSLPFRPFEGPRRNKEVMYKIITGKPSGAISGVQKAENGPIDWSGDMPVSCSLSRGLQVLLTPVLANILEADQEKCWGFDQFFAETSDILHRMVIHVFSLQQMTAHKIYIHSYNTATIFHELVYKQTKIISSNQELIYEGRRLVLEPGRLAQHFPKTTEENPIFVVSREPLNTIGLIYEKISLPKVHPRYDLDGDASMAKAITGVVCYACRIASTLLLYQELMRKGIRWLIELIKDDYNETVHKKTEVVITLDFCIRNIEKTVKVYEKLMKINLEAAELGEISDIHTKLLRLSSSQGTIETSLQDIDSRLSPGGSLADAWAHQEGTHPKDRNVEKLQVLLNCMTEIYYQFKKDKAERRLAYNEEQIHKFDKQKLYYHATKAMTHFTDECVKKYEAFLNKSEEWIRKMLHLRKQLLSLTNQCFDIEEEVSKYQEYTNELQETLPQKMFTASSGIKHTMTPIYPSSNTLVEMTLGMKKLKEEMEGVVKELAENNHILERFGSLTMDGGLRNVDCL
Summary of the method: (§1)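 His-tagged Sf9-expressed kinases at 0.1 or 0.02 μg/ml (TBK1) and 0.1 or 0.015 μg/ml (IKKε) for normal and sensitized formats, with myelin basic protein or casein substrate. ATP was at 2×Km (60 μM TBK1, 32 μM IKKε) plus 0.3 μCi [γ33]ATP. Reactions ran 30-45 min, were captured on P-81 filters, and counts were normalized to DMSO.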

[2] = tested on: IKKε-mediated phosphorylation of IRF3; test: In-situ phosphorylation of IRF3 (pIRF3 Ser396 ELISA) in HEK293T cells cotransfected with IRF3 and IKKε; assay type: cell-based; conditions: Homo sapiens, HEK-293T
Summary of the method: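 For the IRF3 ELISA, HEK293T cells cotransfected with IRF3 and IKKε were replated at 20,000/well and treated 20 h. Phospho-Ser396 IRF3 was measured by ELISA and normalised to DMSO, with viability checked by CellTiter-Glo. For IRF7, cells transfected with IRF7 and TBK1 were treated overnight, and pSer477/Ser479 IRF7 was detected by Western blot.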

[3] = molecular target: T2, IKKε (Homo sapiens, UniProt Q14164); test: In-vitro IKKε kinase assay ([γ33]ATP filter-plate); assay type: biochemical
T2 construct: His-tag; made in house; host or cells: Sf9 insect cells
T2 sequence (Q14164 1-716): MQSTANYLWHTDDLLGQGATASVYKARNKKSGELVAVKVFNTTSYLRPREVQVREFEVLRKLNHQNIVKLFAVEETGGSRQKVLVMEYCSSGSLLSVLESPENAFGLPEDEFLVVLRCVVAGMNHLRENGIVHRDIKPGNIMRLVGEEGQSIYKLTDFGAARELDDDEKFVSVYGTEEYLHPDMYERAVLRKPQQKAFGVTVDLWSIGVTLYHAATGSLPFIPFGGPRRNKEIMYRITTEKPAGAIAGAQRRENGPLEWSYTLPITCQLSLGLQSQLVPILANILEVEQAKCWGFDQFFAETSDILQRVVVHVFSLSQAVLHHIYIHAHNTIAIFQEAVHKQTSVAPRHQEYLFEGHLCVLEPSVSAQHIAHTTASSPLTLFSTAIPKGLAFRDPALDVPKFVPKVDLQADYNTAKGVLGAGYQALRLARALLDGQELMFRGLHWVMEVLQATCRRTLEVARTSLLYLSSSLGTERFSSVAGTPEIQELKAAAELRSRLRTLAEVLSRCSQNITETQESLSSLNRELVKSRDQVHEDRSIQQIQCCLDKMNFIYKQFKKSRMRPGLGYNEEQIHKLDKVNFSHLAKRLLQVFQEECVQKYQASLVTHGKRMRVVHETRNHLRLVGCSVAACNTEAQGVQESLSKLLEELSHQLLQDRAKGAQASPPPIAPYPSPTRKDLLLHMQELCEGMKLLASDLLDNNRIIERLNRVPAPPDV
Summary of the method: as §1

[4] = text bins, read-out: IC50 for inhibition of the kinase activity of TBK1
[5] = HEK293T cells, 20 hours, text bins, read-out: IC50 for inhibition of the in-situ IKKε-mediated phosphorylation of IRF3
[6] = text bins, read-out: IC50 for inhibition of the kinase activity of IKKε

Compound | IC50 [1, 4] [nM] | IC50 [2, 5] [nM] | IC50 [3, 6] [nM] | IC50 ([1]; Table 3, read-out: TBK1 IC50) [nM] | IC50 ([2]; HEK293T cells in culture, Table 3, read-out: pIRF3 ELISA IC50) [nM] | IC50 ([3]; Table 3, read-out: IKKε IC50) [nM]
CN1CCN(c2ccc(Nc3nccc(-c4ccc(OC5CCOCC5)c(C#N)c4)n3)cc2)CC1 [Example 178, 5-(2-{[4-(4-methylpiperazin-1-yl)phenyl]amino}pyrimidin-4-yl)-2-(tetrahydro-2H-pyran-4-yloxy)benzonitrile] | < 10 | < 100 | < 5 | – | – | –
CC(C)(C)CC(=O)Nc1ccc(-c2ccnc(Nc3ccc(N4CCOCC4)cc3)n2)cc1C#N [Example 202, N-[2-cyano-4-(2-{[4-(morpholin-4-yl)phenyl]amino}pyrimidin-4-yl)phenyl]-3,3-dimethylbutanamide] | < 10 | 100 to 250 | 5 to 50 | – | – | –
COc1ccc(Nc2nccc(-c3ccc(N(C)C)c(C#N)c3)n2)cc1OC [Example 206, 5-{2-[(3,4-Dimethoxyphenyl)amino]pyrimidin-4-yl}-2-(dimethylamino) benzonitrile] | < 10 | 250 to 500 | < 5 | – | – | –
COc1cc(Nc2nccc(-c3ccc(OC4CCN(C(=O)[C@H](C)O)CC4)c(C#N)c3)n2)ccc1N1CCOCC1 [Example 208, 2-({1-[(2S)-2-hydroxypropanoyl]piperidin-4-yl}oxy)-5-(2-{[3-methoxy-4-(morpholin-4-yl)phenyl]amino}pyrimidin-4-yl)benzonitrile] | < 10 | 250 to 500 | < 5 | – | – | –
COc1cc(Nc2nccc(-c3ccc(OC4CCOCC4)c(C#N)c3)n2)ccc1S(=O)(=O)N(C)C1CCN(C)CC1 [Example 212] | < 10 | < 100 | < 5 | – | – | –
N#Cc1cc(-c2ccnc(Nc3ccc(N4CCOCC4)cc3)n2)ccc1OCC1CCCN(C(=O)CO)C1 (centres unmarked) [Example 219, 2-{[1-(hydroxyacetyl)piperidin-3-yl]methoxy}-5-(2-{[4-(morpholin-4-yl)phenyl]amino}pyrimidin-4-yl)benzonitrile] | < 10 | 100 to 250 | 5 to 50 | – | – | –
COc1cc(Nc2nccc(-c3ccc(OC4CCN(C(=O)CO)C4)c(C#N)c3)n2)ccc1N1CCOCC1 (centres unmarked) [Example 223, 2-{[1-(hydroxyacetyl)pyrrolidin-3-yl]oxy}-5-(2-{[3-methoxy-4-(morpholin-4-yl)phenyl]amino}pyrimidin-4-yl)benzonitrile] | < 10 | < 100 | < 5 | – | – | –
N#Cc1cc(-c2ccnc(Nc3ccc(N4CCOCC4)cc3)n2)ccc1OC1CCN(S(N)(=O)=O)C1 (centres unmarked) [Example 225, 3-[2-cyano-4-(2-{[4-(morpholin-4-yl)phenyl]amino}pyrimidin-4-yl)phenoxy]pyrrolidine-1-sulfonamide] | < 10 | 100 to 250 | < 5 | – | – | –
N#Cc1cc(-c2ccnc(Nc3ccc(N4CCOCC4)cc3)n2)ccc1OC1CCN(C=O)CC1 [Example 242, 2-[(1-formylpiperidin-4-yl)oxy]-5-(2-{[4-(morpholin-4-yl)phenyl]amino}pyrimidin-4-yl)benzonitrile] | < 10 | 250 to 500 | < 5 | – | – | –

Now from value to molecule:

IC50 [1, 4] [nM] | IC50 [2, 5] [nM] | IC50 [3, 6] [nM] | IC50 ([1]; Table 3, read-out: TBK1 IC50) [nM] | IC50 ([2]; HEK293T cells in culture, Table 3, read-out: pIRF3 ELISA IC50) [nM] | IC50 ([3]; Table 3, read-out: IKKε IC50) [nM] | Compound
< 10 | 250 to 500 | < 5 | – | – | – | COc1cc(Nc2nccc(-c3ccc(OC4CCOCC4)c(C#N)c3)n2)ccc1S(=O)(=O)NC1CCN(C)CC1 [Example 253, 4-({4-[3-cyano-4-(tetrahydro-2H-pyran-4-yloxy)phenyl]pyrimidin-2-yl}amino)-2-methoxy-N-(1-methylpiperidin-4-yl)benzenesulfonamide]
< 10 | 100 to 250 | < 5 | – | – | – | COc1cc(Nc2nccc(-c3ccc(OC4CCOCC4)c(C#N)c3)n2)ccc1OCCCN1CCN(C)CC1 [Example 256, 5-[2-({3-methoxy-4-[3-(4-methylpiperazin-1-yl)propoxy]phenyl}amino)pyrimidin-4-yl]-2-(tetrahydro-2H-pyran-4-yloxy)benzonitrile]
< 10 | 250 to 500 | < 5 | – | – | – | COc1cc(Nc2nccc(-c3ccc(OC4CCOCC4)c(C#N)c3)n2)ccc1O [Example 262, 5-{2-[(4-hydroxy-3-methoxyphenyl)amino]pyrimidin-4-yl}-2-(tetrahydro-2H-pyran-4-yloxy)benzonitrile]
< 10 | – | < 5 | 0.2 | 654 | 0.6 | CC(C)COc1ccc(-c2ccnc(Nc3ccc(N4CCOCC4)cc3)n2)cc1C#N [Example 264, 2-(2-Methylpropoxy)-5-(2-{[4-(morpholin-4-yl)phenyl]amino}pyrimidin-4-yl)benzonitrile]
< 10 | < 100 | < 5 | – | – | – | CN1CCC(NCc2cccc(Nc3nccc(-c4ccc(OC5CCOCC5)c(C#N)c4)n3)c2)CC1 [Example 271, 5-{2-[(3-{[(1-Methylpiperidin-4-yl)amino]methyl}phenyl)amino]pyrimidin-4-yl}-2-(tetrahydro-2H-pyran-4-yloxy)benzonitrile]
< 10 | 250 to 500 | < 5 | – | – | – | COc1cc(Nc2nccc(-c3ccc(OC4CCOCC4)c(C#N)c3)n2)cc(OC)c1OC [Example 290, 2-(Tetrahydro-2H-pyran-4-yloxy)-5-{2-[(3,4,5-trimethoxyphenyl)amino]pyrimidin-4-yl}benzonitrile]
< 10 | 100 to 250 | < 5 | – | – | – | COc1cc(Nc2nccc(-c3ccc(OC4CCOCC4)c(C#N)c3)n2)ccc1C(=O)NCCC1CCCN1C (centres unmarked) [compound 307, 4-({4-[3-cyano-4-(tetrahydro-2H-pyran-4-yloxy)phenyl]pyrimidin-2-yl}amino)-2-methoxy-N-[2-(1-methylpyrrolidin-2-yl)ethyl]benzamide]
< 10 | 100 to 250 | < 5 | – | – | – | CN(C)CCNS(=O)(=O)c1ccc(Nc2nccc(-c3ccc(OC4CCOCC4)c(C#N)c3)n2)cc1 [compound 334, 4-({4-[3-cyano-4-(tetrahydro-2H-pyran-4-yloxy)phenyl]pyrimidin-2-yl}amino)-N-[2-(dimethylamino)ethyl] benzenesulfonamide]
< 10 | < 100 | < 5 | – | – | – | COc1cc(Nc2nccc(-c3ccc(OC4CCOCC4)c(C#N)c3)n2)ccc1C(=O)N1CCN(C)CC1 [compound 354, 5-[2-({3-methoxy-4-[(4-methylpiperazin-1-yl)carbonyl]phenyl}amino)pyrimidin-4-yl]-2-(tetrahydro-2H-pyran-4-yloxy)benzonitrile]
< 10 | 100 to 250 | < 5 | – | – | – | CN1CCC(NS(=O)(=O)c2ccc(Nc3nccc(-c4ccc(OC5CCOCC5)c(C#N)c4)n3)cc2)CC1 [compound 371, 4-({4-[3-cyano-4-(tetrahydro-2H-pyran-4-yloxy)phenyl]pyrimidin-2-yl}amino)-N-(1-methylpiperidin-4-yl)benzenesulfonamide]
